From PubChem BioAssay AID1963965 (Molecular Pharmacology Branch, DTP, NCI, 2024)

System: 996289-038-R-J1-PDC spheroid viability
Assay: Anticancer human tumor 996289-038-R-J1-PDC patient-derived colon adenocarcinoma cell line growth inhibition [PI3K]
Details: spheroids with HUVEC and MSC; for IC50: curve of first compound; for viability, T/C: stronger effect = lower value
Outline: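 Stroma-containing spheroids: tumor line, pooled-donor HUVEC, hMSC. Treatments: targeted agents with PI3K inhibitors. Dosing: clinically relevant, half-log spacing, 10 microM ceiling without known Cmax. Read-out: cell viability.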

[1] = second compound 0.0316 µM, first compound 0.000316 µM
[2] = second compound 0.0316 µM, first compound 0.001 µM
[3] = second compound 0.0316 µM, first compound 0.00316 µM
[4] = second compound 0.0316 µM, first compound 0.01 µM
[5] = second compound 0.0316 µM, first compound 0.0316 µM
[6] = second compound 0.0316 µM, first compound 0.1 µM
[7] = second compound 0.1 µM, first compound 0.000316 µM
[8] = second compound 0.1 µM, first compound 0.001 µM
[9] = second compound 0.1 µM, first compound 0.00316 µM
[10] = second compound 0.1 µM, first compound 0.01 µM
[11] = second compound 0.1 µM, first compound 0.0316 µM
[12] = second compound 0.1 µM, first compound 0.1 µM
[13] = second compound 0.316 µM, first compound 0.000316 µM
[14] = second compound 0.316 µM, first compound 0.001 µM
[15] = second compound 0.316 µM, first compound 0.00316 µM
[16] = second compound 0.316 µM, first compound 0.01 µM
[17] = second compound 0.316 µM, first compound 0.0316 µM
[18] = second compound 0.316 µM, first compound 0.1 µM
[19] = second compound 1 µM, first compound 0.000316 µM
[20] = second compound 1 µM, first compound 0.001 µM
[21] = second compound 1 µM, first compound 0.00316 µM
[22] = second compound 1 µM, first compound 0.01 µM
[23] = second compound 1 µM, first compound 0.0316 µM
[24] = second compound 1 µM, first compound 0.1 µM
[25] = second compound 3.16 µM, first compound 0.000316 µM
[26] = second compound 3.16 µM, first compound 0.001 µM
[27] = second compound 3.16 µM, first compound 0.00316 µM
[28] = second compound 3.16 µM, first compound 0.01 µM
[29] = second compound 3.16 µM, first compound 0.0316 µM
[30] = second compound 3.16 µM, first compound 0.1 µM
[31] = second compound 10 µM, first compound 0.000316 µM
[32] = second compound 10 µM, first compound 0.001 µM
[33] = second compound 10 µM, first compound 0.00316 µM
[34] = second compound 10 µM, first compound 0.01 µM
[35] = second compound 10 µM, first compound 0.0316 µM
[36] = second compound 10 µM, first compound 0.1 µM
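Note: spheroids exposed to compounds for seven days before viability read.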
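Throughout, for viability, T/C: luminescence used as a proxy for viable cell amount; percent viability relative to DMSO vehicle control as 100%.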

Q: With `CC(=O)c1c(C)c2cnc(Nc3ccc(N4CCNCC4)cn3)nc2n(C2CCCC2)c1=O` + Cc1nc(NC(=O)N2CCCC2C(N)=O)sc1-c1ccnc(C(C)(C)C(F)(F)F)c1 as the molecule, how does the IC50 (second compound 0.0316 µM) read?
A: > 100 nM

Q: And the IC50 (second compound 0.1 µM)?
A: > 100 nM

Q: What about the IC50 (second compound 0.316 µM) of the same molecule?
A: > 100 nM

Q: And the IC50 (second compound 1 µM)?
A: > 100 nM

Q: And the IC50 (second compound 3.16 µM)?
A: > 100 nM

Q: What about the IC50 (second compound 10 µM) of the same molecule?
A: < 0.316 nM

Q: And the viability, T/C [1]?
A: 99.8%

Q: And the viability, T/C [2]?
A: 83.4%

Q: And the viability, T/C [3]?
A: 89.9%

Q: What about the viability, T/C [4] of the same molecule?
A: 86.4%

Q: And the viability, T/C [5]?
A: 110%

Q: And the viability, T/C [6]?
A: 99.8%

Q: What about the viability, T/C [7] of the same molecule?
A: 111%

Q: And the viability, T/C [8]?
A: 88.9%

Q: What about the viability, T/C [9] of the same molecule?
A: 107%

Q: What about the viability, T/C [10] of the same molecule?
A: 91.7%

Q: And the viability, T/C [11]?
A: 94.7%

Q: What about the viability, T/C [12] of the same molecule?
A: 81.6%

Q: What about the viability, T/C [13] of the same molecule?
A: 81.5%

Q: What about the viability, T/C [14] of the same molecule?
A: 78.1%

Q: And the viability, T/C [15]?
A: 80%

Q: What about the viability, T/C [16] of the same molecule?
A: 80.2%

Q: What about the viability, T/C [17] of the same molecule?
A: 86.4%

Q: And the viability, T/C [18]?
A: 77.7%

Q: And the viability, T/C [19]?
A: 77.7%

Q: And the viability, T/C [20]?
A: 74.5%

Q: And the viability, T/C [21]?
A: 69.2%

Q: What about the viability, T/C [22] of the same molecule?
A: 69.7%

Q: And the viability, T/C [23]?
A: 85.2%

Q: And the viability, T/C [24]?
A: 66.7%

Q: And the viability, T/C [25]?
A: 60.1%

Q: What about the viability, T/C [26] of the same molecule?
A: 57.9%

Q: What about the viability, T/C [27] of the same molecule?
A: 62.7%

Q: And the viability, T/C [28]?
A: 61.7%

Q: And the viability, T/C [29]?
A: 57.9%

Q: And the viability, T/C [30]?
A: 48%

Q: What about the viability, T/C [31] of the same molecule?
A: 45.4%

Q: What about the viability, T/C [32] of the same molecule?
A: 40.6%

Q: What about the viability, T/C [33] of the same molecule?
A: 36.6%

Q: What about the viability, T/C [34] of the same molecule?
A: 39.9%

Q: And the viability, T/C [35]?
A: 47.4%

Q: What about the viability, T/C [36] of the same molecule?
A: 36.8%

Q: What does the source list for `CC(C)n1nc(-c2ccc3oc(N)nc3c2)c2c(N)ncnc21` + Cc1nc(NC(=O)N2CCCC2C(N)=O)sc1-c1ccnc(C(C)(C)C(F)(F)F)c1?
A: IC50 (second compound 0.0316 µM): 54.8 nM; IC50 (second compound 0.1 µM): 27.3 nM; IC50 (second compound 0.316 µM): 41.5 nM; IC50 (second compound 1 µM): 26 nM; IC50 (second compound 3.16 µM): 2.54 nM; IC50 (second compound 10 µM): < 0.316 nM; viability, T/C [1]: 97.1%; viability, T/C [2]: 83.5%; viability, T/C [3]: 89.2%; viability, T/C [4]: 79%; viability, T/C [5]: 66.5%; viability, T/C [6]: 33.1%; viability, T/C [7]: 100%; viability, T/C [8]: 83.2%; viability, T/C [9]: 78.4%; viability, T/C [10]: 61.7%; viability, T/C [11]: 54.5%; viability, T/C [12]: 25.4%; viability, T/C [13]: 77.7%; viability, T/C [14]: 86.4%; viability, T/C [15]: 93%; viability, T/C [16]: 58.9%; viability, T/C [17]: 63.3%; viability, T/C [18]: 24.1%; viability, T/C [19]: 72.5%; viability, T/C [20]: 79.9%; viability, T/C [21]: 66.5%; viability, T/C [22]: 59.5%; viability, T/C [23]: 49.8%; viability, T/C [24]: 22.3%; viability, T/C [25]: 63.9%; viability, T/C [26]: 53%; viability, T/C [27]: 48.5%; viability, T/C [28]: 40.6%; viability, T/C [29]: 32.3%; viability, T/C [30]: 17.2%; viability, T/C [31]: 43.9%; viability, T/C [32]: 40.8%; viability, T/C [33]: 40.4%; viability, T/C [34]: 35.5%; viability, T/C [35]: 25.2%; viability, T/C [36]: 14.2%
